Key:
[1] = molecular target: second bromodomain of BRD4 (Homo sapiens (Human), UniProt O60885); experiment: Bromoscan binding assay BRD4 (2); settings: geometric mean where multiple measurements have been made
Description: (§1) Compounds were assayed for binding affinity using bromoscan assays and a phosphodiesterase three assay.
(§2) Bromoscan assays were run by DiscoveRx Corporation. The relevant assay names are BRD4 (1) for the first bromodomain of BRD4 and BRD4 (2) for the second bromodomain of BRD4. Further Bromoscan assays covering other bromodomains may be employed to establish the selectivity profile of a compound of interest. To run the Bromoscan assay, a T7 phage strain displaying the relevant bromodomain was grown in parallel in 24-well blocks in an E. coli host derived from the BL21 strain. E. coli were grown to log-phase and infected with T7 phage from a frozen stock (multiplicity of infection=0.4) and incubated with shaking at 32° C. until lysis (90-150 minutes). The lysates were centrifuged (5,000×g) and filtered (0.2 μm) to remove cell debris. […] The liganded beads were blocked with excess biotin and washed with blocking buffer (SeaBlock (Pierce), 1% BSA (bovine serum albumin), 0.05% Tween 20, 1 mM DTT (dithiothreitol)) to remove unbound ligand and to reduce non-specific phage binding. […] Test compounds were prepared as 1000× stocks in 100% DMSO and subsequently diluted 1:10 in monoethylene glycol (MEG) to create stocks at 100× the screening concentration (resulting stock solution is 10% DMSO/90% MEG). The compounds were then diluted directly into the assays such that the final concentration of DMSO and MEG were 0.1% and 0.9%, respectively. All reactions were performed in polystyrene 96-well plates in a final volume of 0.135 ml. […] The bromodomain concentration in the eluates was measured by qPCR (quantitative real-time polymerase chain reaction). Binding constants (Kds) were calculated with a standard dose-response curve using the Hill equation: Response=Blackground+((Signal-Background)/(1+Kd^Hill Slope/Dose^Hill Slope)). The Hill Slope was set to −1. Curves were fitted using a non-linear least square fit with the Levenberg-Marquardt algorithm.

[2] = molecular target: first bromodomain of BRD4 (Homo sapiens (Human), UniProt O60885); experiment: Bromoscan binding assay BRD4 (1); settings: for Kd: Bromoscan, geometric mean where multiple measurements have been made; for Selectivity BRD4(2)/BRD4(1): ratio BRD4(2) Kd / BRD4(1) Kd
Description: as §1, §2

| SMILES | Kd [1] | Kd [2] | Selectivity BRD4(2)/BRD4(1) [2] |
| --- | --- | --- | --- |
| Cc1cc(=O)[nH]c2c3c(c(NC(=O)c4cc5c(nc4N4CCOCC4)COC5)cc12)OCCO3 [Example 10, N-(7-methyl-9-oxo-3,10-dihydro-2H-[1,4]dioxino[2,3-h]quinolin-5-yl)-2-morpholino-5,7-dihydrofuro[3,4-b]pyridine-3-carboxamide] | > 10000 nM | 43 nM | >232 |
| COc1cc(NC(=O)c2cc3c(nc2N2C4CCCC2CC4)COC3)cc2c(C)cc(=O)[nH]c12 [Example 21, 2-(8-azabicyclo[3.2.1]octan-8-yl)-N-(8-methoxy-4-methyl-2-oxo-1H-quinolin-6-yl)-5,7-dihydrofuro[3,4-b]pyridine-3-carboxamide] | 1400 nM | 6 nM | 233 |
| COc1cc2[nH]c(=O)cc(C)c2cc1NC(=O)c1cc2c(nc1N1CCOCC1)COC2 [Example 14, N-(7-methoxy-4-methyl-2-oxo-1H-quinolin-6-yl)-2-morpholino-5,7-dihydrofuro[3,4-b]pyridine-3-carboxamide] | 400 nM | 26 nM | 15 |
| CCN(CC)c1nc2c(cc1C(=O)Nc1cc(OC)c3[nH]c(=O)cc(C)c3c1)COC2 [Example 27, 2-(diethylamino)-N-(8-methoxy-4-methyl-2-oxo-1H-quinolin-6-yl)-5,7-dihydrofuro[3,4-b]pyridine-3-carboxamide] |  |  | 24 |
| COc1cc(NC(=O)c2cc3c(nc2N2CCC(F)(F)C2)COC3)cc2c(C)cc(=O)[nH]c12 [Example 16, 2-(3,3-difluoropyrrolidin-1-yl)-N-(8-methoxy-4-methyl-2-oxo-1H-quinolin-6-yl)-5,7-dihydrofuro[3,4-b]pyridine-3-carboxamide] |  |  | 43 |
| COc1cc(NC(=O)c2cc3c(nc2N2CC4C(C2)C4(F)F)COC3)cc2c(C)cc(=O)[nH]c12 (centres unmarked) [Example 5, 2-(6,6-difluoro-3-azabicyclo[3.1.0]hexan-3-yl)-N-(8-methoxy-4-methyl-2-oxo-1H-quinolin-6-yl)-5,7-dihydrofuro[3,4-b]pyridine-3-carboxamide] | 200 nM | 17 nM | 12 |
| Cc1cc(=O)[nH]c2c3c(c(NC(=O)c4cc5c(nc4N4CCOCC4)COC5)cc12)CCO3 [Example 8, N-(6-methyl-8-oxo-3,9-dihydro-2H-furo[3,2-h]quinolin-4-yl)-2-morpholino-5,7-dihydrofuro[3,4-b]pyridine-3-carboxamide] | > 2500 nM | 56 nM | 45 |
| COc1cc(NC(=O)c2cc3c(nc2N2CCC[C@H]2C)COC3)cc2c(C)cc(=O)[nH]c12 [Example 18, N-(8-methoxy-4-methyl-2-oxo-1H-quinolin-6-yl)-2-[(2R)-2-methylpyrrolidin-1-yl]-5,7-dihydrofuro[3,4-b]pyridine-3-carboxamide] | 200 nM | 12 nM | 17 |
| COc1cc(NC(=O)c2cc3c(nc2N2CC4COCC4C2)COC3)cc2c(C)cc(=O)[nH]c12 (centres unmarked) [Example 20, 2-(1,3,3a,4,6,6a-hexahydrofuro[3,4-c]pyrrol-5-yl)-N-(8-methoxy-4-methyl-2-oxo-1H-quinolin-6-yl)-5,7-dihydrofuro[3,4-b]pyridine-3-carboxamide] | 3400 nM | 70 nM | 49 |
| COc1cc(NC(=O)c2cc3c(nc2N2CCC[C@@H]2C)COC3)cc2c(C)cc(=O)[nH]c12 [Example 25, N-(8-methoxy-4-methyl-2-oxo-1H-quinolin-6-yl)-2-[(2S)-2-methylpyrrolidin-1-yl]-5,7-dihydrofuro[3,4-b]pyridine-3-carboxamide] | 4500 nM | 150 nM | 30 |
| COc1c(F)c(NC(=O)c2cc3c(nc2N2CCOCC2)COC3)cc2c(C)cc(=O)[nH]c12 [Example 9, N-(7-fluoro-8-methoxy-4-methyl-2-oxo-1H-quinolin-6-yl)-2-morpholino-5,7-dihydrofuro[3,4-b]pyridine-3-carboxamide] | 7400 nM | 440 nM | 17 |
| COc1cc(NC(=O)c2cc3c(nc2C2=CCCC2)COC3)cc2c(C)cc(=O)[nH]c12 [Example 3, 2-(cyclopenten-1-yl)-N-(8-methoxy-4-methyl-2-oxo-1H-quinolin-6-yl)-5,7-dihydrofuro[3,4-b]pyridine-3-carboxamide] | 800 nM | 13 nM | 62 |
| COc1cc(NC(=O)c2cc3c(nc2N2C[C@H]4CCO[C@H]4C2)COC3)cc2c(C)cc(=O)[nH]c12 (racemic) [Example 22, N-(8-methoxy-4-methyl-2-oxo-1H-quinolin-6-yl)-2-[rac-(3aR,6aR)-2,3,3a,4,6,6a-hexahydrofuro[2,3-c]pyrrol-5-yl]-5,7-dihydrofuro[3,4-b]pyridine-3-carboxamide] | 3800 nM | 170 nM | 22 |
| COc1cc(NC(=O)c2cc3c(nc2N2CC4CC2(C)C4)COC3)cc2c(C)cc(=O)[nH]c12 [Example 4, N-(8-methoxy-4-methyl-2-oxo-1H-quinolin-6-yl)-2-(1-methyl-2-azabicyclo[2.1.1]hexan-2-yl)-5,7-dihydrofuro[3,4-b]pyridine-3-carboxamide] | > 5000 nM | 29 nM | >172 |

Second part, the compound after the results:

| Kd [1] | Kd [2] | Selectivity BRD4(2)/BRD4(1) [2] | SMILES |
| --- | --- | --- | --- |
| 150 nM | 11 nM | 14 | COc1cc(NC(=O)c2cc3c(nc2N2CC[C@@H](F)C2)COC3)cc2c(C)cc(=O)[nH]c12 [Example 40, 2-[(3R)-3-fluoropyrrolidin-1-yl]-N-(8-methoxy-4-methyl-2-oxo-1H-quinolin-6-yl)-5,7-dihydrofuro[3,4-b]pyridine-3-carboxamide] |
| 400 nM | 26 nM | 16 | COc1cc(NC(=O)c2cc3c(nc2N2C[C@@H](F)[C@@H](F)C2)COC3)cc2c(C)cc(=O)[nH]c12 [Example 42, N-(8-methoxy-4-methyl-2-oxo-1H-quinolin-6-yl)-2-[rac-(3R,4S)-3,4-difluoropyrrolidin-1-yl]-5,7-dihydrofuro[3,4-b]pyridine-3-carboxamide] |
| 600 nM | 20 nM | 30 | COc1cc(NC(=O)c2cc3c(nc2N2CCOCC2)CN(C(C)C)C3)cc2c(C)cc(=O)[nH]c12 [Example 35, 6-isopropyl-N-(8-methoxy-4-methyl-2-oxo-1H-quinolin-6-yl)-2-morpholino-5,7-dihydropyrrolo[3,4-b]pyridine-3-carboxamide] |
| 800 nM | 25 nM | 32 | CCN1Cc2cc(C(=O)Nc3cc(OC)c4[nH]c(=O)cc(C)c4c3)c(N3CCOCC3)nc2C1 [Example 34, 6-ethyl-N-(8-methoxy-4-methyl-2-oxo-1H-quinolin-6-yl)-2-morpholino-5,7-dihydropyrrolo[3,4-b]pyridine-3-carboxamide] |
| 300 nM | 13 nM | 23 | COc1cc(NC(=O)c2cc3c(nc2N2CCOCC2)CN(C2COC2)C3)cc2c(C)cc(=O)[nH]c12 [Example 33, N-(8-methoxy-4-methyl-2-oxo-1H-quinolin-6-yl)-2-morpholino-6-(oxetan-3-yl)-5,7-dihydropyrrolo[3,4-b]pyridine-3-carboxamide] |
| 1200 nM | 14 nM | 86 | COc1cc(NC(=O)c2cc3c(nc2N2CCOCC2)CO[C@@H]3C)cc2c(C)cc(=O)[nH]c12 [Example 30, (5R)—N-(8-methoxy-4-methyl-2-oxo-1H-quinolin-6-yl)-5-methyl-2-morpholino-5,7-dihydrofuro[3,4-b]pyridine-3-carboxamide] |
| 1000 nM | 33 nM | 30 | CCN(c1nc2c(cc1C(=O)Nc1cc(OC)c3[nH]c(=O)cc(C)c3c1)COC2)C(C)C [Example 28, 2-[ethyl(isopropyl)amino]-N-(8-methoxy-4-methyl-2-oxo-1H-quinolin-6-yl)-5,7-dihydrofuro[3,4-b]pyridine-3-carboxamide] |
| 300 nM | 17 nM | 18 | COc1cc(NC(=O)c2cc3c(nc2N2CCOCC2)CN(C)C3)cc2c(C)cc(=O)[nH]c12 [Example 32, N-(8-methoxy-4-methyl-2-oxo-1H-quinolin-6-yl)-6-methyl-2-morpholino-5,7-dihydropyrrolo[3,4-b]pyridine-3-carboxamide] |
| 1000 nM | 22 nM | 45 | COc1cc(NC(=O)c2cc3c(nc2N2CCOCC2)COC3C)cc2c(C)cc(=O)[nH]c12 (centres unmarked) [Example 31, N-(8-methoxy-4-methyl-2-oxo-1H-quinolin-6-yl)-5-methyl-2-morpholino-5,7-dihydrofuro[3,4-b]pyridine-3-carboxamide] |
